Data on 16 compounds can be found in PubChem BioAssay (NCI).

Several values for one entry are separate records, joined by “and”; a condition that tells them apart may be missing. Equal entries are not always repeated.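 1) Cells in 96-well plates. 2) Compound, 48 h, 5 concentrations. 3) Linear interpolation between surrounding doses. 4) Unreached endpoint = highest concentration. The concentration for 50% growth inhibition is given as GI50. TGI is the concentration that stops growth completely.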 Bounds are passed on as bounds.

Holding throughout (assay): growth of human tumour cells (NCI), 48 h
Assay [1] relates to UACC-62 melanoma.
Assay [2] has as its system SK-OV-3 ovarian.
Assay [3] concerns HT29 colon.
In assay [4] the test system is CCRF-CEM leukemia.
Assay [5] deals with LOX IMVI melanoma.
The subject of assay [6] is 786-0 renal.
For assay [7], the system named is CAKI-1 renal.
The test system of assay [8] is NCI-H226 lung.
Assay [9] deals with EKVX NSCLC.
Assay [10] relates to HL-60(TB) leukemia.

Consider `CC1=C[S+](c2ccccc2)c2cccc3cc4ccccc4c1c23` (stereo not drawn), for which the GI50 in [1] is 0.305 µM; in assay [2], 2.41 µM; in assay [3], 0.348 µM; in assay [4], 0.265 µM; in assay [5] it was 0.697 µM; in assay [6], 0.379 µM. In addition, the GI50 was 0.815 µM in assay [7], 1.26 µM in [8], 0.333 µM in assay [9] and 0.173 µM in assay [10]. Besides, the TGI in [1] worked out at 1.64 µM; in assay [2], 14.9 µM; in assay [3], 2.12 µM; in [5] it was 2.23 µM; in assay [7] it was 8.02 µM; in assay [8], 7.47 µM. The TGI in [9] came to 4.99 µM; in [10], 1.03 µM.

Take `CCc1nc(Cl)nc(Cl)c1Cl`: the TGI stood at 19 µM in assay [1]; 18.4 µM in assay [2]; 5.04 µM in assay [3]; 0.771 µM in assay [4]; 0.394 µM in assay [5]; 6.42 µM in [6]. Moreover, the TGI in assay [7] was found to be 1.15 µM; in [8], 14.9 µM; in assay [9] it was 38.7 µM; in [10] it was 3.59 µM.

In the case of `COc1ccccc1S(=O)(=O)Nc1ccc2c(c1)CN(C)C(=O)N2`, the GI50 is 1.26 µM and 1.12 µM in assay [1]; 4.47 µM and 5.15 µM in [2]; 2.55 µM and 2.26 µM in assay [3]; 5.31 µM and 7.05 µM in assay [4]; 3.3 µM and 3.45 µM in assay [5]; 7.79 µM and 8.82 µM in assay [6]. The GI50 in assay [7] was 0.994 µM and 3 µM; in assay [8], 9.98 µM and 16 µM; in assay [9] it was 20.3 µM; in assay [10] it was 1.18 µM and 2.7 µM. For the same compound, the TGI in assay [1] was above 100 µM; in [2], above 100 µM; in assay [3] it was above 100 µM; in [4], above 100 µM; in [5], 27.8 µM and 21.3 µM; in [6] it was above 100 µM. Further, the TGI in [7], in assay [8], in [9] and in assay [10] was above 100 µM in each case.

For `COc1cc2nc3cc([N+](=O)[O-])ccc3c(NCCCNCC(C)(C)O)c2cc1OC`, the GI50 in [1] was 0.214 µM; in assay [2] it was 0.506 µM; in [3], 0.212 µM; in assay [4], 0.502 µM; in assay [5], 0.208 µM; in assay [6], 0.277 µM. Moreover, the GI50 in [7] is 1.95 µM; in assay [8], 0.771 µM; in [9], 1.21 µM; in assay [10] it was 0.694 µM. The TGI is 0.58 µM in assay [1]; 2.59 µM in assay [2]; 0.586 µM in assay [3]; 3.98 µM in [4]; 0.485 µM in [5]; 1.22 µM in assay [6]. For the same compound, the TGI was 10.2 µM in assay [7], 2.89 µM in assay [8], 3.97 µM in assay [9] and 2.95 µM in assay [10].

On to `C#Cc1cccc(Nc2nc3ccc([N+](=O)[O-])cc3nc2Nc2cccc(C#C)c2)c1`, for which the GI50 in assay [1] is 0.302 µM; in assay [2] it was 0.257 µM; in assay [3], 0.229 µM; in assay [4], 0.209 µM; in assay [5] it was 0.172 µM; in assay [6], 0.226 µM. Also, the GI50 was 0.297 µM in assay [7], 0.251 µM in assay [8], 0.249 µM in assay [9] and 0.299 µM in assay [10]. The TGI in [1] was found to be 1.2 µM; in [2], 0.862 µM; in assay [3], 0.562 µM; in assay [4], 1.03 µM; in assay [5], 0.328 µM; in assay [6], 0.73 µM. Besides, the TGI in assay [7] was 0.994 µM; in assay [8] it was 1.2 µM; in assay [9], 0.987 µM; in assay [10] it was 0.788 µM.

Turning to `Cc1cc(C)nc(SC2=C(Nc3cccc(Cl)c3C)C(=O)N(Cc3ccccc3)C2=O)n1`, the GI50 in assay [1], in assay [2], in assay [3], in assay [4], in assay [5] and in [6] was above 160 µM in each case. Further, the GI50 in [7], in assay [8], in assay [9] and in assay [10] was above 160 µM in each case. For the same compound, the TGI in assay [1], in [2], in assay [3], in [4], in assay [5] and in assay [6] was above 160 µM throughout. For the same compound, the TGI in [7], in assay [8], in [9] and in assay [10] was above 160 µM each time.

Turning to `Cc1nc2n(c(=O)c1CCN1CCC(c3noc4cc(F)ccc34)CC1)CCCC2`, the GI50 in assay [1], in [2], in assay [3], in assay [4], in assay [5] and in assay [6] was above 50 µM throughout. Moreover, the GI50 in [7], in assay [8], in assay [9] and in assay [10] was above 50 µM throughout. Besides, the TGI in assay [1], in assay [2], in assay [3], in [4], in assay [5] and in assay [6] was above 50 µM throughout. In addition, the TGI in assay [7], in assay [8], in assay [9] and in assay [10] was above 50 µM throughout.

As for `COC(OC)[C@@H](C)[C@H](O)[C@](C)(O)C1OC(C)(C)OC(C(C)C=C(C)C)C1C` (stereo partly drawn), the TGI in [1], in assay [2], in assay [3], in assay [4], in assay [5] and in assay [6] was above 100 µM in each case. Besides, the TGI in [7], in [8], in [9] and in assay [10] was above 100 µM in each case.

For `C#CCOc1cccc(Nc2ncnc3ccc(NC(=O)CCl)cc23)c1`, the GI50 in assay [1] was 1.65 µM; in assay [2], 2.59 µM; in [3], 0.0981 µM; in assay [4], 0.0725 µM; in [5], 0.0933 µM; in assay [6] it was 0.208 µM. Besides, the GI50 in assay [7] is 0.22 µM; in assay [8] it was 7.43 µM; in assay [9] it was 3.5 µM; in [10], 1.66 µM. For the same compound, the TGI in [1] was 20.3 µM; in [2], above 100 µM; in [3], 6.87 µM; in [4] it was above 33.6 µM; in assay [5], 3.89 µM; in [6], 2.84 µM. Moreover, the TGI is 12.7 µM in assay [7], above 100 µM in assay [8], 23.6 µM in [9] and 19.2 µM in [10].

Turning to `CCOC(=O)NC(=O)c1cn(CCN2CCN(C(=O)CCCCCCCCCCNc3ncnc4nc[nH]c34)CC2)c(=O)[nH]c1=O`, the TGI in assay [1], in assay [2], in assay [3], in [4], in assay [5] and in assay [6] was above 100 µM throughout. Moreover, the TGI in assay [7], in assay [8], in [9] and in assay [10] was above 100 µM each time.

For `C=C(C)[C@@H]1CC[C@]2(COC3CCCCO3)CC[C@]3(C)[C@H](CC[C@@H]4[C@@]5(C)C=C(C=O)C(=O)C(C)(C)[C@@H]5CC[C@]43C)[C@@H]12` (stereo partly drawn), the GI50 in assay [1] was 1.27 µM; in [2] it was 1.84 µM; in assay [3], 1.7 µM; in [4], 0.386 µM; in [5], 1.36 µM; in assay [6], 1.65 µM. Moreover, the GI50 is 1.34 µM in assay [7], 1.95 µM in [8], 1.62 µM in [9] and 1.56 µM in assay [10]. For the same compound, the TGI in [1] is 3.55 µM; in [2], 3.32 µM; in assay [3], 3.49 µM; in assay [4], 2.57 µM; in assay [5] it was 2.73 µM; in [6] it was 3.09 µM. Also, the TGI in assay [7] came to 2.61 µM; in [8], 4.43 µM; in assay [9], 3.32 µM; in [10], 5.37 µM.

For the compound `CCN1C(=O)N(c2ccccc2)C2NN=c3s/c(=C4\C(=O)N(C(C)C)c5ccccc54)c(=O)n3C21` (stereo not drawn), the GI50 in [1] is 0.626 µM; in assay [2], 1.07 µM; in assay [3], 1.08 µM; in assay [4], 1.16 µM; in assay [5], 2.17 µM; in assay [6], 1.95 µM. Also, the GI50 in assay [7] is 0.661 µM; in assay [8] it was 3.7 µM; in assay [9], 1.83 µM; in assay [10], 1.03 µM. Besides, the TGI in [1] was above 100 µM; in assay [2] it was above 100 µM; in [3] it was above 100 µM; in [4], above 100 µM; in assay [5] it was 11.2 µM; in assay [6] it was 8.64 µM. Besides, the TGI in assay [7] is 8.06 µM; in assay [8] it was 31.4 µM; in assay [9] it was above 100 µM; in assay [10], above 23.6 µM.

`Cc1ccc(S(=O)(=O)Cc2nc(-c3ccc(C(=O)NCc4cccnc4)cc3)oc2C)cc1`: the GI50 in assay [1] was above 91.2 µM; in assay [2] it was 14.5 µM; in assay [3], 0.0784 µM; in [4], 0.0103 µM; in [5], 8.12 µM; in assay [6], 20 µM. The GI50 in assay [7] is 1.87 µM; in assay [8], above 100 µM; in assay [9], above 100 µM; in [10] it was 1.97 µM. Besides, the TGI in assay [1], in assay [2], in assay [3], in assay [4], in [5] and in assay [6] was above 100 µM each time. In addition, the TGI in assay [7], in [8], in assay [9] and in assay [10] was above 100 µM each time.

Turning to `CS(=O)(=O)CCNCc1ccc(-c2ccc3ncnc(Nc4ccc(OCc5ccccc5)c(Cl)c4)c3c2)o1`, the GI50 was 4.11 µM in assay [1]; 0.0416 µM in [2]; 3.53 µM in [3]; 7.24 µM in [4]; 4.11 µM in assay [5]; 4.06 µM in assay [6]. The GI50 was 0.41 µM in [7], 4.74 µM in assay [8], 0.132 µM in assay [9] and 5.2 µM in assay [10]. Moreover, the TGI is 8.15 µM in assay [1]; above 8.58 µM in assay [2]; 7.98 µM in assay [3]; above 21.5 µM in assay [4]; 8.2 µM in [5]; 8.58 µM in assay [6]. The TGI in assay [7] is above 21.8 µM; in assay [8], above 22.9 µM; in assay [9] it was above 18.7 µM; in assay [10], 11.8 µM.

For `O=C(NCCCCCCCCNC(=O)c1cccc2ccccc12)c1cccc2ccccc12`, the TGI in assay [1] is above 79.9 µM; in [2], 41.6 µM; in [3] it was above 100 µM; in [4], above 100 µM; in assay [5], above 100 µM; in [6] it was 23.3 µM. Also, the TGI in assay [7] is 52.8 µM; in assay [8], 22.8 µM; in [9], above 91.7 µM; in [10], above 100 µM.

Regarding `CCC(C(=O)[O-])C(=O)[O-].CCC(C(=O)[O-])C(=O)[O-].N.N.NCCCCCCN.[Pt+4].[Pt+4]`, the GI50 is 7.5 µM in assay [1]; 10.3 µM in assay [2]; 9.01 µM in [3]; 1.1 µM in [4]; 10.1 µM in assay [5]; 7.74 µM in assay [6]. Also, the GI50 in assay [7] is 2.25 µM; in assay [8], 10 µM; in assay [9] it was 20.7 µM; in [10] it was 1.68 µM. Moreover, the TGI was 14.6 µM in assay [1]; 18.3 µM in assay [2]; 19.4 µM in [3]; 2.87 µM in assay [4]; 20.6 µM in assay [5]; 14.5 µM in [6]. The TGI in assay [7] was 4.97 µM; in assay [8] it was 20.2 µM; in assay [9] it was 33.3 µM; in assay [10], 4.63 µM.
